The test system of one series is Feline coronavirus. The series can be described thus: Antiviral activity against feline coronavirus. The class given is functional, organism-based.
Another series has as its system Influenza A virus. The series can be described thus: Antiviral activity against influenza A virus (H1N1). The class given is functional, organism-based.
The subject of the next series is Influenza A virus H3N2. The series can be described thus: Antiviral activity against influenza A virus H3N2. The class given is functional, organism-based.
The nature of series [1]: Cytotoxicity against human Huh5-2 cells after 72 hrs by MTS assay. The class given is cell-based, Huh-5-2.
The next series concerns Sindbis virus. The series can be described thus: Antiviral activity against sindbis virus. The class given is functional, organism-based.
The subject of another series is Vaccinia virus. The series can be described thus: Antiviral activity against vaccinia virus. The settings on record: Orthopoxvirus vaccinia. The class given is functional, organism-based.
For series [2], the system named is Human immunodeficiency virus 2. The series can be described thus: Antiviral activity against HIV2 ROD infected in human CEM cells assessed as reduction in virus-induced cytopathicity after 4 to 5 days by microscopy based syncytium cell formation assay. The class given is functional, organism-based, ISOLATE ROD, CCRF-CEM. The settings on record: Human immunodeficiency virus 2, ISOLATE ROD, CCRF-CEM; read-out: EC50.

Another series deals with Human respirovirus 3. The series can be described thus: Antiviral activity against human parainfluenza virus 3. The class given is functional, organism-based.
The subject of series [3] is Respiratory syncytial virus. The series can be described thus: Antiviral activity against RSV. The class given is functional, organism-based.
Series [4] concerns Human immunodeficiency virus 1. The series can be described thus: Antiviral activity against HIV1 3B infected in human CEM cells assessed as reduction in virus-induced cytopathicity after 4 to 5 days by microscopy based syncytium cell formation assay. The class given is functional, organism-based, CCRF-CEM. The settings on record: Human immunodeficiency virus 1, 3B, CCRF-CEM; read-out: EC50.

Another series deals with Reovirus sp. The series can be described thus: Antiviral activity against reovirus. The class given is functional, organism-based.
In the next series the test system is Punta Toro virus. The series can be described thus: Antiviral activity against punta toro virus. The class given is functional, organism-based.
A further series has as its system Coxsackievirus B4. The series can be described thus: Antiviral activity against human coxsackievirus B4. The class given is functional, organism-based.
The nature of series [5]: Cytotoxicity against human CEM cells assessed as inhibition of cell proliferation. The class given is cell-based. The settings on record: CEM cells (CCRF-CEM).
The subject of the next series is Chikungunya virus. The series can be described thus: Antiviral activity against chikungunya virus. The class given is functional.
The subject of another series is Felid alphaherpesvirus 1. The series can be described thus: Antiviral activity against feline herpesvirus. The class given is functional, organism-based.
The next series deals with Hepatitis C virus. The series can be described thus: Antiviral activity against HCV genotype 1b I389luc-ubi-neo/NS3-3'/5.1 replicons infected in human Huh5-2 HCV subgenomic replicon-containing cells assessed as reduction in virus replication after 3 days by luciferase reporter gene assay. The class given is functional, Hepacivirus hominis. The settings on record: Hepatitis C virus, genotype 1b, Huh-5-2, 72 h; for EC50: read-out: EC50.

The test system of series [6] is Vesicular stomatitis virus. The series can be described thus: Antiviral activity against vesicular stomatitis virus. The class given is functional, organism-based.

Activity calls are given as the source filed them. No cut-off for these calls is given here.

Consider `O=C(NCCCCCCCCCCCCNC(=O)c1cc(O)c(O)c(O)c1)c1cc(O)c(O)c(O)c1`, for which the outcome in the series on Feline coronavirus, in the series with Influenza A virus, in the series on Influenza A virus H3N2, with Sindbis virus, in the series with Vaccinia virus and in the series on Human respirovirus 3 was inactive. Also, the outcome (in series [3]; with Reovirus sp.; in the series on Punta Toro virus; in the series on Coxsackievirus B4; in the series on Chikungunya virus; in the series with Felid alphaherpesvirus 1) was inactive. Further, the outcome in series [6] was inactive. Besides, the CC50 at 72 h in series [1] was greater than 100 µM. The figures for the EC50 (in series [2]; in series [4]; with Hepatitis C virus) were 26 µM, 19 µM and 27 µM, respectively. The CC50 in series [5] turned out to be 58 µM. Besides, the EC90 with Hepatitis C virus was greater than 100 µM.

As for `O=C(NCCCCCCCCCCCCNC(=O)c1cccc(O)c1O)c1cccc(O)c1O`, the outcome in the series on Feline coronavirus, in the series with Influenza A virus, in the series on Influenza A virus H3N2, with Sindbis virus, in the series on Vaccinia virus and in the series with Human respirovirus 3 was inactive. The outcome (in [3]; in the series with Reovirus sp.; with Punta Toro virus; in the series on Coxsackievirus B4; in the series with Chikungunya virus; in the series with Felid alphaherpesvirus 1) was inactive. In addition, the result in [6] was inactive. The compound further returned a CC50 at 72 h in series [1] of 108 µM. For the same compound, the EC50 in [2] is greater than 2 µM; in series [4] it was greater than 2 µM; in the series on Hepatitis C virus, 2 µM. In series [5], the half-maximal cytotoxic concentration (CC50) worked out at 4.8 µM. For the same compound, the EC90 in the series on Hepatitis C virus was found to be 4.8 µM.

As to `CCOC(=O)c1cc(O)c(O)c(O)c1` [ETHYLGALLATE], the outcome with Feline coronavirus, with Influenza A virus, in the series on Influenza A virus H3N2, with Sindbis virus, in the series with Vaccinia virus and in the series with Human respirovirus 3 was inactive. Moreover, the outcome (in series [3]; in the series on Reovirus sp.; in the series on Punta Toro virus; in the series with Coxsackievirus B4; in the series with Chikungunya virus; in the series with Felid alphaherpesvirus 1) was inactive. Besides, the outcome in series [6] was inactive. Also, in series [1], the CC50 at 72 h was 45 µM. Besides, the EC50 in series [2] was greater than 10 µM; in [4], greater than 10 µM; in the series with Hepatitis C virus it was 19 µM. For the same compound, the CC50 in [5] was 23 µM. The EC90 in the series on Hepatitis C virus was greater than 45 µM.

Take `O=C(NCCCCCCCCNC(=O)c1ccc(O)c(O)c1O)c1ccc(O)c(O)c1O`: the outcome with Feline coronavirus, in the series with Influenza A virus, in the series with Influenza A virus H3N2, with Sindbis virus, in the series on Vaccinia virus and in the series with Human respirovirus 3 was inactive. Besides, the outcome (in series [3]; with Reovirus sp.; with Punta Toro virus; in the series on Coxsackievirus B4; in the series with Chikungunya virus; in the series on Felid alphaherpesvirus 1) was inactive. For the same compound, the outcome in series [6] was inactive. In series [1], this compound showed a CC50 at 72 h of 34 µM. For the same compound, the EC50 in series [2] was greater than 50 µM; in [4], greater than 50 µM; in the series with Hepatitis C virus, 25 µM. In [5], the half-maximal cytotoxic concentration (CC50) was found to be 82 µM.

With `O=C(NCCCCNC(=O)c1ccc(O)c(O)c1O)c1ccc(O)c(O)c1O`, the outcome in the series on Feline coronavirus, in the series on Influenza A virus, in the series on Influenza A virus H3N2, with Sindbis virus, in the series with Vaccinia virus and in the series with Human respirovirus 3 was inactive. Besides, the result (in series [3]; in the series with Reovirus sp.; with Punta Toro virus; in the series on Coxsackievirus B4; in the series on Chikungunya virus; with Felid alphaherpesvirus 1) was inactive. In series [6], the outcome was inactive. In series [1], this compound registered a CC50 at 72 h greater than 50 µM. The 50% effective concentration (EC50) in series [2] is greater than 10 µM; in series [4] it was greater than 10 µM; in the series on Hepatitis C virus, 15 µM. For the same compound, in series [5], the half-maximal cytotoxic concentration (CC50) worked out at 109 µM. Besides, in the series with Hepatitis C virus, the concentration for an effect of 90% (EC90) was greater than 50 µM.

For the compound `O=C(OCCCCOC(=O)c1cc(O)c(O)c(O)c1)c1cc(O)c(O)c(O)c1`, the outcome in the series on Feline coronavirus, in the series on Influenza A virus, in the series with Influenza A virus H3N2, with Sindbis virus, in the series with Vaccinia virus and in the series with Human respirovirus 3 was inactive. Also, the result (in series [3]; in the series on Reovirus sp.; with Punta Toro virus; with Coxsackievirus B4; in the series with Chikungunya virus; in the series with Felid alphaherpesvirus 1) was inactive. Besides, in [6], the result was inactive. For the same compound, in series [1], the CC50 at 72 h is greater than 50 µM. Also, the results for the EC50 (in series [2]; in series [4]; in the series on Hepatitis C virus) were greater than 10 µM, greater than 10 µM and 39 µM, respectively. Besides, in series [5], the CC50 amounted to 21 µM. Moreover, the 90% effect concentration (EC90) with Hepatitis C virus is greater than 50 µM.

Consider `O=C(NCCCOCCOCCOCCCNC(=O)c1ccc(O)c(O)c1O)c1ccc(O)c(O)c1O`, for which the result in the series with Feline coronavirus, with Influenza A virus, in the series on Influenza A virus H3N2, in the series on Sindbis virus, with Vaccinia virus and in the series on Human respirovirus 3 was inactive. For the same compound, the outcome (in [3]; with Reovirus sp.; in the series on Punta Toro virus; with Coxsackievirus B4; in the series with Chikungunya virus; in the series with Felid alphaherpesvirus 1) was inactive. Besides, in [6], the outcome was inactive. Besides, the CC50 at 72 h in series [1] came out at 49 µM. Also, the 50% effective concentration (EC50) in series [2] is greater than 50 µM; in series [4], greater than 50 µM; with Hepatitis C virus, 28 µM. Besides, the half-maximal cytotoxic concentration (CC50) in series [5] turned out to be 81 µM.

In the case of `O=C(NCCCCCCCCCCNC(=O)c1cc(O)c(O)c(O)c1)c1cc(O)c(O)c(O)c1`, the result in the series with Feline coronavirus, in the series on Influenza A virus, in the series on Influenza A virus H3N2, in the series with Sindbis virus, in the series with Vaccinia virus and in the series on Human respirovirus 3 was inactive. Besides, the result (in series [3]; in the series with Reovirus sp.; with Punta Toro virus; with Coxsackievirus B4; in the series on Chikungunya virus; with Felid alphaherpesvirus 1) was inactive. Besides, the result in series [6] was inactive. The same compound yielded a 50% cytotoxic concentration (CC50) at 72 h in series [1] of 47 µM. The results for the concentration for a half-maximal effect (EC50) (in series [2]; in [4]; with Hepatitis C virus) were greater than 50 µM, greater than 50 µM and 20 µM, respectively. In addition, the half-maximal cytotoxic concentration (CC50) in series [5] is 86 µM.

Take `O=C(NCCCCCCNC(=O)c1cc(O)c(O)c(O)c1)c1cc(O)c(O)c(O)c1`: the outcome in the series with Feline coronavirus, in the series on Influenza A virus, with Influenza A virus H3N2, with Sindbis virus, in the series on Vaccinia virus and in the series with Human respirovirus 3 was inactive. The result (in series [3]; in the series with Reovirus sp.; in the series with Punta Toro virus; with Coxsackievirus B4; in the series with Chikungunya virus; with Felid alphaherpesvirus 1) was inactive. For the same compound, the outcome in [6] was inactive. In addition, the CC50 at 72 h in series [1] amounted to 24 µM. Besides, the concentration giving a half-maximal response (EC50) in [2] is greater than 10 µM; in series [4], greater than 10 µM; in the series with Hepatitis C virus, 11 µM. For the same compound, the cytotoxic concentration (CC50) in [5] was 72 µM. In addition, in the series with Hepatitis C virus, the EC90 was greater than 24 µM.

For the compound `CCCCCOC(=O)c1cc(O)c(O)c(O)c1` [PENTYL GALLATE], the result with Feline coronavirus, in the series with Influenza A virus, with Influenza A virus H3N2, with Sindbis virus, in the series with Vaccinia virus and with Human respirovirus 3 was inactive. In addition, the result (in [3]; in the series on Reovirus sp.; in the series on Punta Toro virus; in the series with Coxsackievirus B4; with Chikungunya virus; in the series on Felid alphaherpesvirus 1) was inactive. Besides, the result in series [6] was inactive. Moreover, in series [1], the CC50 at 72 h is greater than 50 µM. Moreover, the EC50 in series [2] is no less than 10 µM; in [4], 14 µM; in the series on Hepatitis C virus it was 14 µM. Besides, the half-maximal cytotoxic concentration (CC50) in [5] came out at 47 µM. Moreover, the concentration for an effect of 90% (EC90) with Hepatitis C virus is greater than 50 µM.

For the origin of these results see ChEMBL document CHEMBL3407452, “Linear and branched alkyl-esters and amides of gallic acid and other (mono-, di- and tri-) hydroxy benzoyl derivatives as promising anti-HCV inhibitors” (Eur J Med Chem, 2015).
